Source: US20250127162A1, “METHODS AND COMPOSITIONS FOR CONTROLLING PESTS IN RICE” (Globachem NV, priority 2022, published 2025)

System: Diabrotica speciosa
Assay: Dry bean field trials, Diabrotica speciosa damage and yield (Example 4)
Format: in vivo
Settings: 150 L water/ha, two applications 7 d apart; for % Damage, % UNCK: 28 DAB, Lambda-cyhalothrin 100 at 0.15 L/ha; for Yield: plot
Description: All applications were made with an EC formulation containing 650 g/L of pelargonic acid (e.g., 685 g/L of 95% purity pelargonic acid), an anionic emulsifier and a branched fatty acid ester solvent.
Diabrotica speciosa is a major pest in rice.
Dry Beans—Diabrotica speciosa

[1] = Trial 1, dry bean, listed as PA 812.5 g/ha
[2] = Trial 1, dry bean, listed as PA 975 g/ha
[3] = Trial 1, dry bean, listed as PA 1137.5 g/ha
[4] = Trial 2, dry bean, listed as PA 812.5 g/ha
[5] = Trial 2, dry bean, listed as PA 975 g/ha
[6] = Trial 2, dry bean, listed as PA 1137.5 g/ha

For `CCCCCCCCC(=O)O` [PA 650 g/ha, pelargonic acid], which “% Damage, % UNCK” value (Trial 1, dry bean) is on record?
Its value is 27.81a % UNCK.

What about the “% Damage, % UNCK” value [1] of the same compound?
Its value is 82.01b % UNCK.

And the “% Damage, % UNCK” value [2]?
Its value is 86.96b % UNCK.

And the “% Damage, % UNCK” value [3]?
Its value is 88.90b % UNCK.

What about the Yield (Trial 1, dry bean) of the same compound?
The Yield was 2.09b Ton/ha.

What about the Yield [1] of the same compound?
Its Yield is 2.28ab Ton/ha.

And the Yield [2]?
The Yield was 2.37ab Ton/ha.

And the Yield [3]?
The Yield was 2.34ab Ton/ha.

And the “% Damage, % UNCK” value (Trial 2, dry bean)?
The value was 39.58b % UNCK.

What about the “% Damage, % UNCK” value [4] of the same compound?
The value was 81.64c % UNCK.

And the “% Damage, % UNCK” value [5]?
Its value is 87.8c % UNCK.

And the “% Damage, % UNCK” value [6]?
The value was 88.11c % UNCK.

And the Yield (Trial 2, dry bean)?
The Yield was 2.11cd Ton/ha.

What about the Yield [4] of the same compound?
Its Yield is 2.15cd Ton/ha.

And the Yield [5]?
Its Yield is 2.19bc Ton/ha.

And the Yield [6]?
The Yield was 2.29a Ton/ha.
